Data: PubChem BioAssay AID256 (DTP/NCI, 2004)
Several values for one entry are separate records, joined by “and”; a condition that tells them apart may be missing. Identical values can stand only once. Inconclusive results and toxic doses are left out.

Test system: CD2F1 mice, L1210 leukemia ip, survival T/C
Assay: NCI In Vivo Anticancer Drug Screen. Data for tumor model L1210 Leukemia (intraperitoneal) in CD2F1 (CDF1) mice
Details: endpoint: mean survival time, higher = longer survival
Method in brief: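 Antitumor effect is scored in animals hosting a serially transplanted tumor. Values compare compound-dosed animals against vehicle-only controls as a simple quotient.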

[1] = dose: 75.0 mg/kg/injection, schedule: Q01DX001 (ip), vehicle: saline
[2] = dose: 150.0 mg/kg/injection, schedule: Q01DX001 (ip), vehicle: saline
[3] = dose: 100.0 mg/kg/injection, schedule: Q04DX003 (ip), vehicle: saline
[4] = dose: 200.0 mg/kg/injection, schedule: Q04DX003 (ip), vehicle: saline
[5] = dose: 400.0 mg/kg/injection, schedule: Q04DX003 (ip), vehicle: saline
[6] = dose: 25.0 mg/kg/injection, schedule: Q04DX002 (ip), vehicle: saline with Tween-80
[7] = dose: 50.0 mg/kg/injection, schedule: Q04DX002 (ip), vehicle: saline with Tween-80
[8] = dose: 100.0 mg/kg/injection, schedule: Q04DX002 (ip), vehicle: saline with Tween-80
[9] = dose: 100.0 mg/kg/injection, schedule: Q01DX009 (ip), vehicle: saline with Tween-80
[10] = dose: 200.0 mg/kg/injection, schedule: Q01DX009 (ip), vehicle: saline with Tween-80
[11] = dose: 400.0 mg/kg/injection, schedule: Q01DX009 (ip), vehicle: saline with Tween-80
[12] = dose: 200.0 mg/kg/injection, schedule: Q04DX002 (ip), vehicle: saline with Tween-80

With `CN(C)CCCN(C)CCCN(C)C` the T/C [1] was 104 % of control and the T/C [2] was 103 % of control.

`CCOC(=O)c1cc2c3n(c1=O)CCCC3C(c1ccccn1)OC2=O` (configuration not stated) was tested, and the T/C [3] was 100 % of control, the T/C [4] was 107 % of control and the T/C [5] was 102 % of control.

With `O=C(O)C(=O)O.O=C(O)C(=O)O.O=C(O)C(=O)O.[Fe]` the T/C [6] was 91 % of control, the T/C [7] was 91 % of control and the T/C [8] was 87 % of control.

For `CSCCC(NC=O)C(=O)O` (configuration not stated), the T/C (dose: 12.5 mg/kg/injection, schedule: Q01DX001 (ip), vehicle: saline) was 98 % of control, the T/C (dose: 25.0 mg/kg/injection, schedule: Q01DX001 (ip), vehicle: saline) was 93 % of control and the T/C (dose: 50.0 mg/kg/injection, schedule: Q01DX001 (ip), vehicle: saline) was 106 % of control.

With `Cc1c2ccccc2cc2c1ccc1ccccc12` the T/C (dose: 9.0 mg/kg/injection, schedule: Q01DX009 (ip), vehicle: saline with Tween-80) was 106 % of control, the T/C (dose: 17.5 mg/kg/injection, schedule: Q01DX009 (ip), vehicle: saline with Tween-80) was 108 % of control and the T/C (dose: 35.0 mg/kg/injection, schedule: Q01DX009 (ip), vehicle: saline with Tween-80) was 108 % of control. The T/C (dose: 70.0 mg/kg/injection, schedule: Q01DX009 (ip), vehicle: saline with Tween-80) was 103 % of control.

For `CC1(C)/C(=N/Nc2ccc([N+](=O)[O-])cc2[N+](=O)[O-])C=Cc2ccccc21`, the T/C (dose: 12.5 mg/kg/injection, schedule: Q01DX009 (ip), vehicle: other) was 105 % of control, the T/C (dose: 25.0 mg/kg/injection, schedule: Q01DX009 (ip), vehicle: other) was 94 % of control and the T/C (dose: 100.0 mg/kg/injection, schedule: Q01DX009 (ip), vehicle: other) was 90 % of control. The T/C (dose: 200.0 mg/kg/injection, schedule: Q01DX009 (ip), vehicle: other) was 94 % of control.

In the case of `CCOC(=O)C(=Cc1ccc(C=C(C(=O)OCC)C(=O)OCC)cc1)C(=O)OCC`, the T/C (dose: 50.0 mg/kg/injection, schedule: Q01DX009 (ip), vehicle: Klucel (hydroxypropylcellulose) (HPC)) is reported as 95 % of control, the T/C (dose: 100.0 mg/kg/injection, schedule: Q01DX009 (ip), vehicle: Klucel (hydroxypropylcellulose) (HPC)) is reported as 95 % of control and the T/C (dose: 200.0 mg/kg/injection, schedule: Q01DX009 (ip), vehicle: Klucel (hydroxypropylcellulose) (HPC)) is reported as 89 % of control.

`O.O=S(=O)(O)O.[NH-]C1CCCC1[NH-].[Pt+2]` (configuration not stated) was tested, and the T/C (dose: 0.5 mg/kg/injection, schedule: Q01DX009 (ip), vehicle: dextrose) was 116 % of control and 120 % of control, the T/C (dose: 0.5 mg/kg/injection, schedule: Q04DX003 (ip), vehicle: dextrose) was 102 % of control and 106 % of control and the T/C (dose: 1.0 mg/kg/injection, schedule: Q01DX001 (ip), vehicle: dextrose) was 100 % of control and 104 % of control. The T/C (dose: 1.0 mg/kg/injection, schedule: Q04DX003 (ip), vehicle: dextrose) was 116 % of control and 112 % of control, the T/C (dose: 2.0 mg/kg/injection, schedule: Q01DX009 (ip), vehicle: dextrose) was 160 % of control and the T/C (dose: 2.0 mg/kg/injection, schedule: Q04DX003 (ip), vehicle: dextrose) was 119 % of control. The T/C (dose: 4.0 mg/kg/injection, schedule: Q01DX009 (ip), vehicle: dextrose) was 108 % of control, the T/C (dose: 4.0 mg/kg/injection, schedule: Q04DX003 (ip), vehicle: other) was 165 % of control and the T/C (dose: 6.0 mg/kg/injection, schedule: Q01DX001 (ip), vehicle: dextrose) was 151 % of control. For the same molecule, the T/C (dose: 8.0 mg/kg/injection, schedule: Q04DX003 (ip), vehicle: dextrose) was 160 % of control and 188 % of control, the T/C (dose: 10.0 mg/kg/injection, schedule: Q01DX001 (ip), vehicle: dextrose) was 160 % of control and the T/C (dose: 16.0 mg/kg/injection, schedule: Q04DX003 (ip), vehicle: dextrose) was 102 % of control.

`CN(C)C(CCN1CCCCC1)CN1CCCCC1` (configuration not stated) was tested, and the T/C (dose: 100.0 mg/kg/injection, schedule: Q01DX009 (ip), vehicle: saline) was 101 % of control, the T/C [3] was 101 % of control and the T/C (dose: 200.0 mg/kg/injection, schedule: Q01DX009 (ip), vehicle: saline) was 98 % of control. For the same molecule, the T/C [4] was 101 % of control, the T/C (dose: 400.0 mg/kg/injection, schedule: Q01DX009 (ip), vehicle: saline) was 102 % of control and the T/C [5] was 98 % of control.

With `OC(C/C=C/c1ccccc1)(c1ccccc1)c1ccccc1` the T/C [9] was 93 % of control, the T/C [10] was 101 % of control and the T/C [11] was 96 % of control.

`CC(=O)Nc1cc2c(ncn2C2OC(CO)C(O)C2O)c(Br)n1` (configuration not stated) was tested, and the T/C (dose: 12.5 mg/kg/injection, schedule: Q01DX005 (ip), vehicle: water) was 93 % of control, the T/C (dose: 25.0 mg/kg/injection, schedule: Q01DX005 (ip), vehicle: water) was 94 % of control and the T/C (dose: 50.0 mg/kg/injection, schedule: Q01DX005 (ip), vehicle: water) was 98 % of control. The T/C (dose: 200.0 mg/kg/injection, schedule: Q01DX005 (ip), vehicle: water) was 94 % of control.

`C=C(C)C1(CC)C(=O)NC(=S)N(C)C1=O` (configuration not stated) was tested, and the T/C [1] was 97 % of control, the T/C [2] was 101 % of control and the T/C (dose: 300.0 mg/kg/injection, schedule: Q01DX001 (ip), vehicle: saline) was 101 % of control.

With `O=C(O)CCn1c(=O)[nH]c(=O)n(CCC(=O)O)c1=O` the T/C [9] was 96 % of control, the T/C (dose: 100.0 mg/kg/injection, schedule: Q04DX003 (ip), vehicle: saline with Tween-80) was 113 % of control and the T/C [10] was 100 % of control. For the same molecule, the T/C (dose: 200.0 mg/kg/injection, schedule: Q04DX003 (ip), vehicle: saline with Tween-80) was 101 % of control, the T/C [11] was 97 % of control and the T/C (dose: 400.0 mg/kg/injection, schedule: Q04DX003 (ip), vehicle: saline with Tween-80) was 98 % of control.

In the case of `O=C1CSC(=S)N1/N=C/c1cc(Cl)cc(Cl)c1O`, the T/C (dose: 75.0 mg/kg/injection, schedule: Q01DX001 (ip), vehicle: other) is reported as 90 % of control and the T/C (dose: 150.0 mg/kg/injection, schedule: Q01DX001 (ip), vehicle: other) is reported as 102 % of control.

For `COc1cc(C=C2C(=O)C=CC2=O)ccc1O`, the T/C (dose: 3.13 mg/kg/injection, schedule: Q04DX002 (ip), vehicle: saline with Tween-80) was 108 % of control, the T/C (dose: 6.25 mg/kg/injection, schedule: Q04DX002 (ip), vehicle: saline with Tween-80) was 100 % of control and the T/C (dose: 12.5 mg/kg/injection, schedule: Q04DX002 (ip), vehicle: saline with Tween-80) was 106 % of control.

For `c1ccc2nc(N3CCCCC3)ccc2c1`, the T/C [6] was 94 % of control, the T/C [7] was 94 % of control and the T/C [8] was 94 % of control.

In the case of `CC(=O)[O][Sb]([CH3])([CH3])([CH3])[O]C(C)=O`, the T/C [8] is reported as 110 % of control, the T/C [12] is reported as 98 % of control and the T/C (dose: 400.0 mg/kg/injection, schedule: Q04DX002 (ip), vehicle: saline with Tween-80) is reported as 103 % of control.

In the case of `NC(=O)CCc1ccnc2ccccc12`, the T/C [8] is reported as 96 % of control and the T/C [12] is reported as 92 % of control.

In the case of `Cc1ccc(CSCc2ccc(C)cc2)cc1`, the T/C (dose: 100.0 mg/kg/injection, schedule: Q04DX003 (ip), vehicle: other) is reported as 100 % of control, the T/C (dose: 200.0 mg/kg/injection, schedule: Q04DX003 (ip), vehicle: other) is reported as 107 % of control and the T/C (dose: 400.0 mg/kg/injection, schedule: Q04DX003 (ip), vehicle: other) is reported as 97 % of control.

In the case of `C[CH2][Pb]([CH2]C)([CH2]C)[O]C(=O)C=C1CCCC1`, the T/C (dose: 0.63 mg/kg/injection, schedule: Q01DX009 (ip), vehicle: saline) is reported as 96 % of control, the T/C (dose: 1.25 mg/kg/injection, schedule: Q01DX009 (ip), vehicle: saline) is reported as 102 % of control and the T/C (dose: 2.5 mg/kg/injection, schedule: Q01DX009 (ip), vehicle: saline) is reported as 95 % of control. The T/C (dose: 5.0 mg/kg/injection, schedule: Q04DX003 (ip), vehicle: saline with Tween-80) was 92 % of control and the T/C (dose: 10.0 mg/kg/injection, schedule: Q04DX003 (ip), vehicle: saline with Tween-80) was 92 % of control.

For `COc1ccc(C2=CCN(c3ccc(C)cc3)P(=O)(N(CCCl)CCCl)O2)cc1` (configuration not stated), the T/C (dose: 31.25 mg/kg/injection, schedule: Q01DX001 (ip), vehicle: saline) was 100 % of control, the T/C (dose: 62.5 mg/kg/injection, schedule: Q01DX001 (ip), vehicle: saline) was 100 % of control and the T/C (dose: 125.0 mg/kg/injection, schedule: Q01DX001 (ip), vehicle: saline) was 97 % of control. For the same molecule, the T/C (dose: 250.0 mg/kg/injection, schedule: Q01DX001 (ip), vehicle: saline) was 102 % of control and the T/C (dose: 500.0 mg/kg/injection, schedule: Q01DX001 (ip), vehicle: saline) was 91 % of control.

For `N#CCCN1c2ccccc2Sc2ccccc21`, the T/C (dose: 75.0 mg/kg/injection, schedule: Q04DX003 (ip), vehicle: saline) was 102 % of control and the T/C (dose: 150.0 mg/kg/injection, schedule: Q04DX003 (ip), vehicle: saline) was 112 % of control.

For `O=C(CNC(=O)Nc1cccc(C(F)(F)F)c1)N/N=C/c1cccs1`, the T/C (dose: 50.0 mg/kg/injection, schedule: Q01DX009 (ip), vehicle: saline with Tween-80) was 88 % of control, the T/C [9] was 96 % of control and the T/C [10] was 92 % of control.
